Measurements from patent US20220233435A1 (priority 2019, published 2022).

Test: Release of nicotine and vanillin from devices in artificial saliva
Type: physicochemical
Conditions: device with 50 w-% PVA / 50 w-% PLA, ca. 20 mg
Protocol: Three devices of each polymer matrix formulation were chosen for drug release experiments. Prior to the experiments, the dimensions and weight of the capsules were recorded. In the drug release experiments, the capsules were immersed in 2 mL of artificial saliva, which itself consists of a solution of 16.8 mM Na2HPO4, 1.4 mM KH2PO4, and 137 mM NaCl salts dissolved in purified water at pH 6.75. The solution was kept at 37° C. and under constant stirring. Once a day, 150 μL of solution was withdrawn from each sample to measure the amount of released drug in a high-performance liquid chromatography apparatus (HPLC). An equal amount of solution was added after each withdrawal to keep the total volume constant. The experiment was ceased between 35 and 42 days, due to devices turning red resulting from paracetamol degradation, or when all the drug was deemed to be released.
The release of nicotine and vanillin was measured similarly as in Examples 1 and 2.

| SMILES | cumulative release from device (day 2) [µg] | cumulative release from device (day 14) | loading degree in device [w-%] | cumulative release from device (day 4) | cumulative release from device (day 7) [µg] |
| --- | --- | --- | --- | --- | --- |
| CN1CCCC1c1cccnc1 (stereo not drawn) [Nicotine, nicotine] | 6 | ca. 7 μg | 0.04 |  |  |
| COc1cc(C=O)ccc1O [Vanillin, vanillin] |  |  | 0.32 | ca. 50 μg | 65 |
